Consider 3 compounds from ChEMBL document CHEMBL3085753, “Bridged tricyclic sesquiterpenes from the tubercle nudibranch Phyllidia coelestis Bergh” (J Nat Prod, 2013).

By IC50 is commonly meant the concentration at which inhibition is half-maximal. Read a high IC50 as lower potency. What is called inhibition is the relative decrease from the control value, in per cent. High values mean a strong effect, low ones a weak effect.

One data set has as its system MCF7. The data set is described as follows: Antiproliferative activity against human MCF7 cells by SRB assay. The class given is functional, cell-based. (In general: Sulforhodamine B stains cellular protein and so reports cell mass.)
A further data set deals with HeLa. Briefly: Antiproliferative activity against human HeLa cells by SRB assay. The class given is functional, cell-based.
Data set [1] is described as follows: Cytotoxicity against human Gingival fibroblasts at 20 uM by SRB assay. Further details: species or system Gingival fibroblast. The settings on record: read-out: INH.
Data set [2] deals with HT-29. The data set is described as follows: Antiproliferative activity against human HT-29 cells at 20 uM by SRB assay. Format: functional.
For the next data set, the system named is KB. The data set is described as follows: Antiproliferative activity against human KB cells by SRB assay. The class given is functional, cell-based.
Data set [3] relates to HT-29. Briefly: Antiproliferative activity against human HT-29 cells by SRB assay. Format: functional, cell-based.

For `CC(C)[C@@H]1C[C@@]2(C)[C@@H]3CC[C@@](C)(C[C@@H]31)[C@@H]2NC=O` (relative stereo), the concentration for half-maximal inhibition (IC50) was found to be 8200 nM in the data set on MCF7, 70 nM in the data set on HeLa and 1200 nM in the data set on KB. Moreover, the cytotoxicity at 20 µM in data set [1] turned out to be 25%. The compound further had an inhibition at 20 µM with HT-29 [2] of 35%.

Consider `CC(C)[C@@H]1C[C@@]2(C)[C@@H]3CC[C@](C)(NC=O)[C@H]2C[C@@H]31` (relative stereo), for which the IC50 in the data set on MCF7 came to 650 nM; with HeLa, 130 nM; in the data set on KB, 2400 nM; with HT-29 [3], 6800 nM. Besides, in data set [1], the cytotoxicity at 20 µM was 65%.

For `CC[C@@]1(O)C(=O)OCc2c1cc1n(c2=O)Cc2cc3ccccc3nc2-1` [CAMPTOTHECIN], the concentration for half-maximal inhibition (IC50) is 3.3 nM in the data set with MCF7, 130 nM in the data set with HeLa, 20 nM in the data set on KB and 0.7 nM with HT-29 [3].
